Experimental data from ChEMBL document CHEMBL5223094, “Recent advancements in chromone as a privileged scaffold towards the development of small molecules for neurodegenerative therapeutics” (RSC Med Chem, 2022).
One block for each compound: values may come before it.

How the values were obtained:
[1] = Selectivity index, ratio of Ki for displacement of [3H](+)-pentazocine from human sigma 1 receptor expressed in human HEK293 cells to Ki for displacement of (+)-[3H]DTG from rat sigma 2 receptor; type: cell-based
[2] = molecular target: T1, Amine oxidase [flavin-containing] B (Homo sapiens, UniProt P27338); assay: Inhibition of human MAO-B using tyramine as substrate preincubated for 10 mins followed by substrate addition and measured after 30 mins by fluorometric method
T1 sequence (P27338 whole entry): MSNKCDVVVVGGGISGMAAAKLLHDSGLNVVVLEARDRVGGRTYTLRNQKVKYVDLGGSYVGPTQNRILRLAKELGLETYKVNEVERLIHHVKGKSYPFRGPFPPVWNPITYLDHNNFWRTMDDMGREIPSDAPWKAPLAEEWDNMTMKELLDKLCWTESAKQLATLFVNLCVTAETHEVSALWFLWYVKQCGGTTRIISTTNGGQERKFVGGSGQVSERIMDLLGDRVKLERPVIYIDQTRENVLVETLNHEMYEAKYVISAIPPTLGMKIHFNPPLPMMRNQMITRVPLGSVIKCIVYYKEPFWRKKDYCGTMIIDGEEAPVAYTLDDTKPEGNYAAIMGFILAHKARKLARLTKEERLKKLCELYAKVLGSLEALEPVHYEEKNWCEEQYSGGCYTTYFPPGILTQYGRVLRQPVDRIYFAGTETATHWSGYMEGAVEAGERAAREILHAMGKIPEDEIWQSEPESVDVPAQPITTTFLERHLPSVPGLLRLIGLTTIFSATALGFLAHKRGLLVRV

Homo sapiens [3] = organism: Homo sapiens; assay: Selectivity index, ratio of IC50 for inhibition of human MAO-B to IC50 for inhibition of human MAO-A
[4] = molecular target: T2, Amine oxidase [flavin-containing] A (Homo sapiens, UniProt P21397); assay: Inhibition of MAO-A (unknown origin)
T2 sequence (P21397 whole entry): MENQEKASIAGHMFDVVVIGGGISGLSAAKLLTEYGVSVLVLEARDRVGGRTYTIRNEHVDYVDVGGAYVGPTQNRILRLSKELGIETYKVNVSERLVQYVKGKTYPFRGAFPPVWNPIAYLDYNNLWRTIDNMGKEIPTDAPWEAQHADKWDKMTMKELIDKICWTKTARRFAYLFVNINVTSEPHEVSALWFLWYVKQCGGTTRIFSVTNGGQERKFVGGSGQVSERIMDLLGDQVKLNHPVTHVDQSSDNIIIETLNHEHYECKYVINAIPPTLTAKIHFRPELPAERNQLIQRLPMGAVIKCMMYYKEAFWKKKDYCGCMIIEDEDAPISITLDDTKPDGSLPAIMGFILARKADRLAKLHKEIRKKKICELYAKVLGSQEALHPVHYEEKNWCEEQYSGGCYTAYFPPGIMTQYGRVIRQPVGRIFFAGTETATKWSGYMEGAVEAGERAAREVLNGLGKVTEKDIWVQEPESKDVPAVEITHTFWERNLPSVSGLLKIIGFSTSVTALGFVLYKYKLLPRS

[5] = molecular target: T3, Polyunsaturated fatty acid 5-lipoxygenase (Homo sapiens, UniProt P09917); assay: Inhibition of LOX5 (unknown origin)
T3 sequence (P09917 whole entry): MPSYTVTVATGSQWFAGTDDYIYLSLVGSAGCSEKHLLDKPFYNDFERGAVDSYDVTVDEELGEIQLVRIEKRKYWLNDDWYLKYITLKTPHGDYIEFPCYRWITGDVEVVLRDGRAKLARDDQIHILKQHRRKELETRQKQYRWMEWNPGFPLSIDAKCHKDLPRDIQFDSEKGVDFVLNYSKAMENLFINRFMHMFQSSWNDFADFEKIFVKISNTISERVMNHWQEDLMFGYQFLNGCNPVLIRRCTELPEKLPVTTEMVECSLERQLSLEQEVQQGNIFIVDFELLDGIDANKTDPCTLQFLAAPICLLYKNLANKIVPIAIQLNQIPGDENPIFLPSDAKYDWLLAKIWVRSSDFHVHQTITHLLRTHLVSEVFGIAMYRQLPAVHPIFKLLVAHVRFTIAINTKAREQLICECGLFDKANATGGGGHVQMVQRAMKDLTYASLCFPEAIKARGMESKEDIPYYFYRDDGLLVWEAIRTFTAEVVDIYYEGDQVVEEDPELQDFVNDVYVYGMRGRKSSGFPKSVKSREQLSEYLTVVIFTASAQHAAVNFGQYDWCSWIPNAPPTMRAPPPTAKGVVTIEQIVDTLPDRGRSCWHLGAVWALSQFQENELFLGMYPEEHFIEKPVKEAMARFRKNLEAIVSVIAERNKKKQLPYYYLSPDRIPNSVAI

[6] = molecular target: T4, Prostaglandin G/H synthase 2 (Homo sapiens, UniProt P35354); assay: Inhibition of COX2 (unknown origin)
T4 sequence (P35354 whole entry): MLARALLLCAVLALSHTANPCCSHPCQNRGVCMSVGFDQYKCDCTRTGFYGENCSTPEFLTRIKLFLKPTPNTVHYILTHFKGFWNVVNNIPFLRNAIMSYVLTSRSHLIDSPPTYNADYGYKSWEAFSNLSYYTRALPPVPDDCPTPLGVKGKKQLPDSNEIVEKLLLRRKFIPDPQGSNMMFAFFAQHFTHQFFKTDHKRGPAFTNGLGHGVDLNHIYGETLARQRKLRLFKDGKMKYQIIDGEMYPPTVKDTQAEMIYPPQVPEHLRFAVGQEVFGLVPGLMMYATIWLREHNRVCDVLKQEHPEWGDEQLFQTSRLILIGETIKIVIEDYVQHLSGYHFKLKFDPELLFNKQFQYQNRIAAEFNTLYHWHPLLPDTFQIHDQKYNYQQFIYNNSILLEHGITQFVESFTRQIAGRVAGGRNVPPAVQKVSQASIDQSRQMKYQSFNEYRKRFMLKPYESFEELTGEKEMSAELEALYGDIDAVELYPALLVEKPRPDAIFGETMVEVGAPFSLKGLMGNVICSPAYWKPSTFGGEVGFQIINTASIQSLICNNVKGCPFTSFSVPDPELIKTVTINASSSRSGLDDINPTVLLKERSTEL

Beta-secretase 1 = Beta-secretase 1 (Homo sapiens, UniProt P56817); assay: Inhibition of recombinant human BACE-1 expressed in baculovirus using Rh-EVNLDAEFK-Quencher as substrate incubated for 60 mins by FRET assay
Chain of Beta-secretase 1 (P56817 whole entry): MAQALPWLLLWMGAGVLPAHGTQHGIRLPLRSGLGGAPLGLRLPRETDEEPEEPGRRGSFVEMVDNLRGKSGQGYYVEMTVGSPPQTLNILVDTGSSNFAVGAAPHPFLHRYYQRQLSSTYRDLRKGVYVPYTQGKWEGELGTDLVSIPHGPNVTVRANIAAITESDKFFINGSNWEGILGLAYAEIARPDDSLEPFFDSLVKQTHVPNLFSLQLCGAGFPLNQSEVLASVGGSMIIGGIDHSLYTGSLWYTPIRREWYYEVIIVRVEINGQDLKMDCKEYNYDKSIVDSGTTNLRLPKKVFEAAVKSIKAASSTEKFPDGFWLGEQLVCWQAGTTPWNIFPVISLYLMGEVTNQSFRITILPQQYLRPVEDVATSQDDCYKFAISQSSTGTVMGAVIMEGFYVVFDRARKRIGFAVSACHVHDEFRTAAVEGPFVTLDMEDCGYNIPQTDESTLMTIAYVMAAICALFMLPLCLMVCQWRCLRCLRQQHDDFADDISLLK

Acetylcholinesterase [7] = molecular target: Acetylcholinesterase (Homo sapiens, UniProt P22303); assay: Inhibition of recombinant human AChE using acetylthiocholine as substrate preincubated for 15 mins followed by substrate addition and measured after 5 mins by DTNB reagent based Ellman's method
Chain of Acetylcholinesterase (Homo sapiens, UniProt P22303) (P22303 whole entry): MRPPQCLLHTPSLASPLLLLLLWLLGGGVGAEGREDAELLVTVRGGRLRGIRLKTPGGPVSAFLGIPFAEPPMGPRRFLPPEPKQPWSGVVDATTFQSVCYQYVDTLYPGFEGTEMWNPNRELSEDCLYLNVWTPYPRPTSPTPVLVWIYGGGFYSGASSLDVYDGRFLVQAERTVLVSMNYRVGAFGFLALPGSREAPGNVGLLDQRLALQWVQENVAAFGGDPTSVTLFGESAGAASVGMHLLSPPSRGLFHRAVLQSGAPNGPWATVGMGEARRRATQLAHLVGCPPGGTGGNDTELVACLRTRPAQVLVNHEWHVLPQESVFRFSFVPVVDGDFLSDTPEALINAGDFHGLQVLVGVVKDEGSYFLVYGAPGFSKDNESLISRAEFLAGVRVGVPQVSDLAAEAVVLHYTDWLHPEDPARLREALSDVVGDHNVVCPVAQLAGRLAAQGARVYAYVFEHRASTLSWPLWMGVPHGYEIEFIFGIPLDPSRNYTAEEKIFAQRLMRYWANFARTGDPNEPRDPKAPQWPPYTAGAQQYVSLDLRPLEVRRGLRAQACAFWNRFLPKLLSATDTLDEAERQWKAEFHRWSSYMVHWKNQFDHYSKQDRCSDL

Cholinesterase [8] = molecular target: Cholinesterase (Homo sapiens, UniProt P06276); assay: Inhibition of recombinant human BuChE using butyrylthiocholine as substrate preincubated for 15 mins followed by substrate addition and measured after 5 mins by Ellman's method
Chain of Cholinesterase (Homo sapiens, UniProt P06276) (P06276 whole entry): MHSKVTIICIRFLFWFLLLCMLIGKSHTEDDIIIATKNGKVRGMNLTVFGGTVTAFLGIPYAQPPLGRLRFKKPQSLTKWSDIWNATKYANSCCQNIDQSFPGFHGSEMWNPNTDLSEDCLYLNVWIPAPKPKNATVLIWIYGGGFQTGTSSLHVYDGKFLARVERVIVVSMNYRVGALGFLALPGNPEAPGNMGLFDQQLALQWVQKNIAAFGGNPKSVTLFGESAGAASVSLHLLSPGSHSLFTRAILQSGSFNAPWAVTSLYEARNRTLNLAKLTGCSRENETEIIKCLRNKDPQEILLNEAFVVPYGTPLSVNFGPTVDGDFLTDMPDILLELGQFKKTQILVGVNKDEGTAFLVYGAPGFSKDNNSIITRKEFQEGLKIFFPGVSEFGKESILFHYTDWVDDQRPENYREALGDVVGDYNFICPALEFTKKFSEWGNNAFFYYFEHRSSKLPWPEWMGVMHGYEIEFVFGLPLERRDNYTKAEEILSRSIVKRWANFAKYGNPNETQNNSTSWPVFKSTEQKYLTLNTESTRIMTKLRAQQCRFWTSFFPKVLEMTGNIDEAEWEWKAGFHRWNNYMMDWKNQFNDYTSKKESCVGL

[9] = molecular target: T4, Prostaglandin G/H synthase 2; assay: Inhibition of COX2 (unknown origin) using arachidonic acid as substrate preincubated for 5 mins followed by substrate addition by microplate spectrophotometric analysis
[10] = molecular target: T3, Polyunsaturated fatty acid 5-lipoxygenase; assay: Inhibition of human LOX5 using arachidonic acid preincubated for 10 mins followed by substrate addition by microplate spectrophotometric analysis
[11] = Inhibition of soybean LOX15 using arachidonic acid preincubated for 5 mins followed by substrate addition and measured after 5 mins by microplate spectrophotometric analysis; parameters: species or system Glycine max
[12] = molecular target: T2, Amine oxidase [flavin-containing] A; assay: Inhibition of MAO-A (unknown origin) by fluorescence spectrophotometer analysis
[13] = molecular target: T1, Amine oxidase [flavin-containing] B; assay: Inhibition of MAO-B (unknown origin) by fluorescence spectrophotometer analysis
Acetylcholinesterase [14] = molecular target: Acetylcholinesterase (Electrophorus electricus, UniProt O42275); assay: Inhibition of electric eel AChE using acetylthiocholine iodide as substrate preincubated for 15 mins followed by substrate addition by Ellman's method
Chain of Acetylcholinesterase (Electrophorus electricus, UniProt O42275) (O42275 whole entry): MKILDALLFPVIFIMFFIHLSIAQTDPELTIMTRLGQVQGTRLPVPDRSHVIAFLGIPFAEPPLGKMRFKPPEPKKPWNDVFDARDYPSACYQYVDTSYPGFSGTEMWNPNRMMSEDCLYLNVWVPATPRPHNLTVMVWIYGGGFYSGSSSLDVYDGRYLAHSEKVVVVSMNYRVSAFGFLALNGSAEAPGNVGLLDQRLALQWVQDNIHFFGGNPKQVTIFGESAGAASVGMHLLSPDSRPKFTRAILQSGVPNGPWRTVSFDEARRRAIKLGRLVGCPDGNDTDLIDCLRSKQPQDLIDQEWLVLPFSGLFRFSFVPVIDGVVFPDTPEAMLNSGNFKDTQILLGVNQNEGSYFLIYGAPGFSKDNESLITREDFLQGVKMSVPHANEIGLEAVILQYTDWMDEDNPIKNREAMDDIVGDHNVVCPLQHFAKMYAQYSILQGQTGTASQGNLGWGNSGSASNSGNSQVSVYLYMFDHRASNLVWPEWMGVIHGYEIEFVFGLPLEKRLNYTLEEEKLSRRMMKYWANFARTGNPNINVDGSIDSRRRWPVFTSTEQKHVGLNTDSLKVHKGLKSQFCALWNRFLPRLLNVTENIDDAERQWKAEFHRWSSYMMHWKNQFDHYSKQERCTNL

Cholinesterase [15] = molecular target: Cholinesterase (Equus caballus, UniProt P81908); assay: Inhibition of equine serum BuChE using butyrylthiocholine chloride as substrate preincubated for 15 mins followed by substrate addition by Ellman's method
Chain of Cholinesterase (Equus caballus, UniProt P81908) (P81908 whole entry): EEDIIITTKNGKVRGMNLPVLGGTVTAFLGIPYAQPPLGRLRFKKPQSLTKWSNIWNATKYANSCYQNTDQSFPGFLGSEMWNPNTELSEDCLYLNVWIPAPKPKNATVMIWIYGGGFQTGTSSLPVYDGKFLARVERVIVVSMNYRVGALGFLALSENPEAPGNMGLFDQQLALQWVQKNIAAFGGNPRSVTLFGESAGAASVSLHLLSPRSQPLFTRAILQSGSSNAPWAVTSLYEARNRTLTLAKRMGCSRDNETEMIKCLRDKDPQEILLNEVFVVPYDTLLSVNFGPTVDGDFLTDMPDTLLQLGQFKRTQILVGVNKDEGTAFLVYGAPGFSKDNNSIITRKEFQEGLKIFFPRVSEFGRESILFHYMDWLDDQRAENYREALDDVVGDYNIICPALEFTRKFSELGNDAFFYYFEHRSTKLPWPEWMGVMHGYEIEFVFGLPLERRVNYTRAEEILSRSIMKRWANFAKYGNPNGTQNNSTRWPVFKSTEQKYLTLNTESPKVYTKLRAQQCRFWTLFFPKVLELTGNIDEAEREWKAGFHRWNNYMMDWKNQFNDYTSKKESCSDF

[16] = molecular target: Amyloid-beta precursor protein (Homo sapiens) (UniProt P05067); assay: Inhibition of self-induced amyloid beta (1 to 42) (unknown origin) aggregation at 10 uM incubated for 48 hrs by ThT fluorometric assay
Chain of Amyloid-beta precursor protein (Homo sapiens) (P05067 whole entry): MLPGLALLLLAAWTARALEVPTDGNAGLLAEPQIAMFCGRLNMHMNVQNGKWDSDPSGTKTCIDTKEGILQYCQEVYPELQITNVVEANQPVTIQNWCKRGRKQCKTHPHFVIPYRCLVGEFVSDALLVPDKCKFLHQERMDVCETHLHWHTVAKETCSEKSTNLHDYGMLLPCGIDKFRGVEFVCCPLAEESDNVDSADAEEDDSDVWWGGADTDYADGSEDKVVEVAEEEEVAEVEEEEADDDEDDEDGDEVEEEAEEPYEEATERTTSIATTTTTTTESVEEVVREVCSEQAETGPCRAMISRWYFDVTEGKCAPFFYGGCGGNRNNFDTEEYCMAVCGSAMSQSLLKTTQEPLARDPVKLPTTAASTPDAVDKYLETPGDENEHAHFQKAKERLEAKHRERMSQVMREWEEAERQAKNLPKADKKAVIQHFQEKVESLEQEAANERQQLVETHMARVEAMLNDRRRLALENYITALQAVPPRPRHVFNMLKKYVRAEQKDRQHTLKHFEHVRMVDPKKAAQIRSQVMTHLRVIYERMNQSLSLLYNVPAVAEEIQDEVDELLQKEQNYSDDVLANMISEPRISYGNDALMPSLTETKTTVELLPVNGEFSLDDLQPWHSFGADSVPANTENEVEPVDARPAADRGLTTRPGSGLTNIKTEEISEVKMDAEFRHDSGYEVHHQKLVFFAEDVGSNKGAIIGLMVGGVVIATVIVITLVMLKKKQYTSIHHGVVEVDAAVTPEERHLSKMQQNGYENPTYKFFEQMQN

[17] = molecular target: Amyloid-beta precursor protein (Homo sapiens) (UniProt P05067); assay: Inhibition of electric eel AChE-indued amyloid beta (1 to 42) (unknown origin) aggregation at 100 uM incubated for 24 hrs by ThT fluorometric assay
[18] = molecular target: T1, Amine oxidase [flavin-containing] B; assay: Inhibition of MAO-B (unknown origin)
[19] = molecular target: T1, Amine oxidase [flavin-containing] B; assay: Inhibition of recombinant human MAO-B using kynuramine as substrate preincubated for 10 mins followed by enzyme addition and measured after 20 mins by fluorescent microplate reader analysis
Homo sapiens [20] = organism: Homo sapiens; assay: Selectivity index, ratio of IC50 for inhibition of recombinant human MAO-B to IC50 for inhibition of recombinant human MAO-A
SH-SY5Y = assay: Neuroprotective activity against 6-OHDA-induced cell death in human SH-SY5Y cells assessed as cell viability; type: functional, cell-based
[21] = molecular target: Amyloid-beta precursor protein (Homo sapiens) (UniProt P05067); assay: Inhibition of amyloid beta (unknown origin); conditions: concentration not given here
[22] = molecular target: Amyloid-beta precursor protein (Homo sapiens) (UniProt P05067); assay: Inhibition of amyloid beta (1 to 42) (unknown origin) aggregation at 50 uM incubated for 24 hrs by ThT fluorometric assay

Structure (SMILES): O=c1ccoc2ccc(OCCCCCN3CCOCC3)cc12
Ratio Ki [1]: 130

IC50 [2]: 100 nM | Ratio IC50 (Homo sapiens [3]): 324
Structure (SMILES): COc1ccc(NC(=O)c2c(OCc3ccccc3)ccc3c(=O)c(C)c(C)oc23)cc1

Structure (SMILES): O=c1ccoc2ccc(OCCCN3CCCCCC3)cc12
Ratio Ki [1]: 28

IC50 [4]: 23 nM
Structure (SMILES): COc1ccc2oc(-n3cncn3)cc(=O)c2c1

Structure (SMILES): O=c1c(/C=N/Nc2ccc(C(F)(F)F)cc2)coc2c1ccc1oc(-c3ccc(Cl)cc3)cc12
IC50 [5]: 28500 nM | IC50 [6]: 10400 nM | IC50 (Beta-secretase 1): 14000 nM | IC50 (Acetylcholinesterase [7]): 5000 nM | IC50 (Cholinesterase [8]): 10000 nM | IC50 [9]: 10000 nM | IC50 [10]: 29000 nM | IC50 [11]: 15000 nM

IC50 [12]: 1600 nM | IC50 [13]: 2100 nM
Structure (SMILES): O=c1cc(-c2ccc(Cl)cc2)oc2ccc(Cn3cc(Nc4ccc(F)cc4)nn3)cc12

Structure (SMILES): CCc1cc[n+](CCCOc2ccc3c(=O)cc(-c4ccc(OC)cc4)oc3c2)cc1
IC50 (Acetylcholinesterase [14]): 3000 nM | IC50 (Cholinesterase [15]): 700 nM | inhibition [16]: 32% | inhibition [17]: 37%

IC50 [18]: 15 nM | IC50 [19]: 15 nM | Ratio IC50 (Homo sapiens [20]): > 6700
Structure (SMILES): COc1ccc2c(=O)c(N3CCN(c4ccccc4)CC3)coc2c1

Structure (SMILES): O=c1cc(-c2ccc(Cl)cc2)oc2cc(OCCCC[n+]3ccccc3)ccc12
IC50 (Acetylcholinesterase [14]): 6 nM | IC50 (Cholinesterase [15]): 2000 nM | inhibition [16]: 28% | inhibition [17]: 22%

Structure (SMILES): COCOc1cc2occ(-c3ccc(OC)cc3)c(=O)c2c2c1CC(O)C(C)(C)O2 (centres undefined)
EC50 (SH-SY5Y): 500 nM

inhibition [21]: 80.4% | inhibition [22]: 80%
Structure (SMILES): COc1cccc2oc3c(c(=O)c12)[C@@H](O)CC3
